# According to patent US20220387433A1, “TYPE V PHOSPHODIESTERASE INHIBITOR COMPOSITIONS, METHODS OF MAKING THEM AND METHODS OF USING THEM IN PREVENTING OR TREATING ELEVATED PULMONARY VASCULAR PRESSURE OR PULMONARY HEMORRHAGES” (American Regent, Inc., priority 2019, published 2022):
# Tests used:
# [1] = Pharmacokinetic study, plasma and urine concentrations; format: in vivo, horses
# Experimental: A pharmacokinetic (PK) study was conducted in six horses, namely three mares, two geldings and one stallion. The study measured plasma and urine concentrations of E-4021 (EIPHISOL®) after IV administration of 100 mg of E-4021 per horse. Plasma samples were collected pretreatment and then at 10, 20 and 30 minutes and 1, 1.5, 2, 2.5, 3, 3.5, 4, 4.5, 5, 5.5, 6, 8, 12, 17, 24 and 30 hours post administration. […] The mean area under the concentration-time curve extrapolated to infinity (AUC0-∞) was 217±83.5 hr*ng/mL. The mean volume of distribution (V) was 6.06±3.99 L/kg.
# Urine was collected for assaying E-4021 during four intervals: (1) a pre-dose sample collected from approximately −24 hours through 0 hours, (2) a 0 hour to 12 hour post-dose sample, (3) a 12 hour to 24 hour post-dose sample, and, (4) a 24 hour to 36 hour-post dose sample. There was wide variability in the concentration of E-4021 measured in urine, with maximum concentration ranging from 130-974 ng/mL. […] E-4021 concentration in urine remained above the quantitation limit (3 ng/mL) for four of the six horses at 36 hours post-dose.
# [2] = test system: mature, healthy horses; test: Twenty-four week (6-month) target animal safety (TAS) study; format: in vivo
# Experimental: A twenty-four week (6-month) target animal safety (TAS) study was conducted to evaluate the safety of E-4021 (EIPHISOL®) in mature, healthy horses. The study was designed with 4 treatment groups of eight horses (two geldings, two stallions and four mares) in each group. Treatment groups included a Control (Group I: Isotonic saline at a volume equivalent to the largest volume given in the 5× (Group IV); 1× (Group II: 0.125 mg E4021 per pound body weight); 3× (Group III: 0.375 mg E4021 per pound body weight; and 5× (Group IV: 0.625 mg E4021 per pound body weight). Treatment groups were dosed intravenously alternating between the left and right jugular vein once every 7 days for 25 doses.
# Breeds represented in this study included Thoroughbred, Quarter Horse, Paint, Arabian, and Grade. The overall age ranged from 3 to 17 years, with a mean of 7.6±4.49 years. The majority of the horses were Thoroughbred (59.4%).
# Physical Examinations and Post-Dose Observations: Post-dose observations were conducted after every treatment to detect any acute abnormalities at 10-, 30-, and 60-minute intervals. […] As all groups (including the controls) recorded this finding (Table I), it is presumed that a factor other than the test article was responsible.
# [3] = males in Group II (1×) and Group III (3×)
# [4] = males in Group III (3×) and Group IV (5×)
substance,measurement,setting,value
"sodium 1-[6-chloro-4-(3,4-methylenedioxybenzyl)-aminoquinazolin-2-yl]piperidine-4-carboxylate sesquihydrate [E-4021]",Mean clearance (CL),[1]; IV 100 mg per horse,19.5 ± 11.5 mL/min/kg
same,Mean volume of distribution (V),[1]; IV 100 mg per horse,6.06 ± 3.99 L/kg
same,Maximum concentration in urine,"[1]; IV 100 mg per horse, range over six horses",130 to 974 ng/mL
same,Concentration in urine at 36 hours post-dose,[1]; above quantitation limit for four of the six horses,> 3 ng/mL
same,Collection interval of maximum urine concentration,[1]; all six horses,12-hour post-dose collection
same,Mean Tmax,"[1]; plasma, IV 100 mg per horse",0.195 ± 0.020 h
same,Mean area under the concentration-time curve extrapolated to infinity (AUC0-∞),"[1]; plasma, IV 100 mg per horse",217 ± 83.5 ng·h/mL
same,Mean elimination half-life (T½),"[1]; plasma, IV 100 mg per horse",4.42 ± 2.91 h
same,Mean maximum concentration (Cmax) ±SD,"[1]; plasma, IV 100 mg per horse, six horses",295 ± 118 ng/mL
same,"Visual findings ataxia/dragging toes or behavioral/sedation, counted once per horse per group","[2]; 1X, PE Day 0",6
same,"Visual findings ataxia/dragging toes or behavioral/sedation, counted once per horse per group","[2]; 1X, PE Day 28",4
same,"Visual findings ataxia/dragging toes or behavioral/sedation, counted once per horse per group","[2]; 1X, PE Day 56",2
same,"Visual findings ataxia/dragging toes or behavioral/sedation, counted once per horse per group","[2]; 1X, PE Day 84",1
same,"Visual findings ataxia/dragging toes or behavioral/sedation, counted once per horse per group","[2]; 1X, PE Day 112",1
same,"Visual findings ataxia/dragging toes or behavioral/sedation, counted once per horse per group","[2]; 1X, PE Day 140",1
same,"Visual findings ataxia/dragging toes or behavioral/sedation, counted once per horse per group","[2]; 1X, PE Day 168",1
same,"Physical examination findings, treatment-related",[2]; 1× and 3×,no major abnormal physical examination findings
same,"Visual findings ataxia/dragging toes or behavioral/sedation, counted once per horse per group","[2]; 3X, PE Day 0",2
same,"Visual findings ataxia/dragging toes or behavioral/sedation, counted once per horse per group","[2]; 3X, PE Day 28",0
same,"Visual findings ataxia/dragging toes or behavioral/sedation, counted once per horse per group","[2]; 3X, PE Day 56",1
same,"Visual findings ataxia/dragging toes or behavioral/sedation, counted once per horse per group","[2]; 3X, PE Day 84",0
same,"Visual findings ataxia/dragging toes or behavioral/sedation, counted once per horse per group","[2]; 3X, PE Day 112",0
same,"Visual findings ataxia/dragging toes or behavioral/sedation, counted once per horse per group","[2]; 3X, PE Day 140",1
same,"Visual findings ataxia/dragging toes or behavioral/sedation, counted once per horse per group","[2]; 3X, PE Day 168",0
same,"Visual findings ataxia/dragging toes or behavioral/sedation, counted once per horse per group","[2]; 5X, PE Day 0",6
same,"Visual findings ataxia/dragging toes or behavioral/sedation, counted once per horse per group","[2]; 5X, PE Day 28",4
same,"Visual findings ataxia/dragging toes or behavioral/sedation, counted once per horse per group","[2]; 5X, PE Day 56",3
same,"Visual findings ataxia/dragging toes or behavioral/sedation, counted once per horse per group","[2]; 5X, PE Day 84",4
same,"Visual findings ataxia/dragging toes or behavioral/sedation, counted once per horse per group","[2]; 5X, PE Day 112",2
same,"Visual findings ataxia/dragging toes or behavioral/sedation, counted once per horse per group","[2]; 5X, PE Day 140",2
same,"Visual findings ataxia/dragging toes or behavioral/sedation, counted once per horse per group","[2]; 5X, PE Day 168",2
same,Blood urea nitrogen (BUN) vs Group I (Control),[2]; Day 140 for Group II (1×) and Day 154 for Group III (3×),significantly higher
same,MCH vs Group I (Control),[2]; Group II (1×) and Group IV (5×),no significant differences
same,Direct bilirubin vs Group I (Control),"[2]; Group II (1×), overall",significantly lower
same,Erythrocytes vs Group I (Control),"[2]; Group II (1×), overall",significantly lower
same,Hematocrit vs Group I (Control),"[2]; Group II (1×), overall",significantly lower
same,Hemoglobin vs Group I (Control),"[2]; Group II (1×), overall",significantly lower
same,MCHC vs Group I (Control),"[2]; Group II (1×), Days 14, 70, and 154",significantly higher
same,"Leukocytes vs Group I (Control), group-by-time","[2]; Group II (1×), Days 14 and 154",significantly lower
same,Glucose vs Group I (Control),"[2]; Group II (1×), Days 28, 42, 56, 70, and 140",significantly lower
same,APTT vs Group I (Control),"[2]; Group II (1×), Days 56, 140, and 168",significantly higher
same,Fibrinogen vs Group I (Control),"[2]; Group III (3×), overall",significantly lower
same,MCHC vs Group I (Control),"[2]; Group III (3×), Day 0",significantly lower
same,MCH vs Group I (Control),"[2]; Group III (3×), Day 56",significantly higher
same,APTT vs Group I (Control),"[2]; Group III (3×), Days 28, 56, 98, 140, and 168",significantly higher
same,"Leukocytes vs Group I (Control), group-by-time","[2]; Group III (3×), Days 84, 98, 112, 140, and 168",significantly higher
same,"Leukocytes vs Group I (Control), group-by-time",[2]; Group IV (5×),no significant differences
same,APTT vs Group I (Control),"[2]; Group IV (5×), Day 84",significantly lower
same,Blood urea nitrogen (BUN) vs Group I (Control),"[2]; Group IV (5×), Days 28, 42, 84, and 112",significantly lower
same,Glucose vs Group I (Control),"[2]; Group IV (5×), Days 28, 84, 140, and 168",significantly lower
same,APTT vs Group I (Control),"[2]; Group IV (5×), Days 56, 70, and 126",significantly higher
same,MCHC vs Group I (Control),"[2]; Group IV (5×), Days 98, 112, and 154",significantly higher
same,Physical examination findings at and immediately after dosing,"[2]; Group IV (5×), also recorded in controls, not dose related, not considered treatment related","transient locomotion (ataxia/dragging toes), or neurodepressant type effects (behavioral/sedation)"
same,Microscopic findings at the injection site(s),"[2]; IV jugular once every 7 days for 25 doses, attributed to minor trauma of injection procedure","minimal fibrosis of the dermis or vein, and minimal degeneration and necrosis of the underlying skeletal muscle"
same,Urinalysis findings,[2]; all groups,did not appear to be any indication of abnormal urinalysis findings
same,Bone marrow smears,"[2]; control and test-article treated horses, no dose relationship or correlation with decreased platelet counts on Day 168",low incidence of decreased megakaryocytes
same,"Leukocytes vs Group I (Control), group-by-sex",[2]; female horses in Group III (3×) and Group IV (5×),significantly higher
same,Globulin vs Group I (Control),[2]; females in Group II (1×),significantly higher
same,Albumin vs Group I (Control),[2]; females in Group II (1×) and Group III (3×),significantly lower
same,Sorbitol dehydrogenase vs Group I (Control),[2]; females in Group II (1×) and Group IV (5×),significantly higher
same,Lymphocytes/leukocytes vs control,"[2]; females, all treatment groups",no significant differences
same,Magnesium vs control,"[2]; females, all treatment groups",no significant difference
same,Neutrophils/leukocytes vs control,"[2]; females, all treatment groups",no significant differences
same,Macroscopic findings limited to the injection site,[2]; in vivo,no macroscopic findings
same,"Microscopic findings: mandibular salivary glands, related to test article","[2]; males given 1× and 3×, limited number examined",no microscopic findings
same,Liver to brain weight ratio (%) compared to control males,"[2]; males given the 3× dose, p=0.033, small magnitude, no dose response",statistically higher
same,Mean liver to body weight ratio (%) compared to control males,"[2]; males given the 3× dose, p=0.064, small magnitude, no dose response",statistically higher
same,"Leukocytes vs Group I (Control), group-by-sex",[2]; males in Group II (1×),significantly lower
same,Albumin vs Group I (Control),[2]; [3],significantly higher
same,Sorbitol dehydrogenase vs Group I (Control),[2]; [3],significantly higher
same,Globulin vs Group I (Control),[2]; [4],significantly lower
same,Lymphocytes/leukocytes vs Group I (Control),[2]; [4],significantly higher
same,Magnesium vs Group I (Control),[2]; males in Group IV (5×),significantly lower
same,Neutrophils/leukocytes vs Group I (Control),[2]; males in Group IV (5×),significantly lower
same,"Testicular changes, relation to dose",[2]; most consistent with spontaneous background findings,did not show evidence of a dose response
same,Microscopic findings: testes,"[2]; often with mononuclear cell infiltration and/or Leydig cell pigment accumulation, not in the single control male",Minimal seminiferous tubule degeneration
same,Adverse event of abdominal colic,"[2]; one horse Group II (1×) Day 51, one horse Control Day 54",did not appear to be associated with test article administration
same,Macroscopic observations at the end of dosing,"[2]; previous trauma, infectious diseases, degenerative/aging changes or euthanasia artifact",attributed to spontaneous background alterations
same,Fecal analysis findings,"[2]; two horses in Group III (3×) at Day 83, other groups normal",abnormal intestinal mucosa
